Results published in patent US20110195911A1, “SYNTHETIC ANALOGS OF THE JUXTAMEMBRANE DOMAIN OF IGF1R AND USES THEREOF” (THE UNITED STATES OF AMERICA,AS REPRESENTED BY THE …, priority 2008, published 2011).
Where a SMILES comes first, the peptide text is derived from it. [ ]: non-standard residue; d: D form. The star is where a group is joined. Palmitoyl = CCCCCCCCCCCCCCCC(=O)*

Tests used:
Format in all cases: cell-based
[1] = system: MCF-7 breast cancer cells; test: MTT cell toxicity assay in MCF-7 breast cancer cells; settings: MCF-7 cells, MTT; for TGI: concentration of total growth inhibition (cytostatic); for growth inhibition / potency in MCF-7 cells (in words): comparison with related peptides
Procedure, shortened: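 MCF-7 cells seeded in 1% FBS medium, grown 24 h, then exposed to compounds at 0.1, 0.5, 2.5 or 5.0 μM (final, 0.5% FBS) for 48 h. MTT absorbance at 544 nm; growth relative to time-zero and untreated controls gave GI50 (50% growth inhibition) and TGI (zero net growth).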

[2] = system: breast cancer cell lines; test: Alternative potency assay (MTT, serum-free, IGF-1 added) in cancer cell lines, FIG. 1; settings: breast cancer cell lines (MCF-7, T47D), IGF-1 10 ng/mL
Procedure: An alternative potency assay was used to test compounds in MCF-7 (breast cancer), T47D (breast cancer), Colo 205 (colon cancer), JM-1 (rat hepatoma), Sk MeI-2 (melanoma), PLC (human hepatoma), and HepG2 (human hepatoma) cells. Cells were suspended at a concentration of approximately 5000 cells per 100 μL of suspension in a 5% FBS RPMI medium. The cells were seeded into 96-count wells and incubated over night. After one day's incubation, the 5% FBS medium was aspirated and replaced with 100 μL of no serum RPMI medium containing 1 mg Bovine Serum Albumin (BSA) per 1 mL RPMI. Various concentrations of the test compounds were prepared by dilution in no-serum medium containing 1 mg BSA/mL. […] Absorbance of the wells at 544 nm was determined by a FLUOstar/POLARstar Galaxy (BMG Lab Technologies GmbH) microplate reader. The activity was calculated from the data using the formula: 100×[(T−T0)/(C−T0)] for T>T0 and 100×[(T−T0)/T0] for T<T0, wherein T0 corresponds to cell density at the time of drug addition, “T” is the optical density of the test well after a 48-h period of exposure to test drug, and “C” is the control optical density. […]

[3] = system: AKT kinase; test: OMNIA fluorogenic AKT kinase activity assay in lysates of IGF-1-stimulated MCF-7 cells, FIG. 3; settings: MCF-7 stimulated with IGF-1, inhibitor 0 to 0.5 μM to 2.5 μM
Procedure: AKT Kinase Assay: OMNIA™ fluorogenic AKT Kinase Activity Assay Kit (BioSource through Invitrogen) was used for the measurement of AKT activity in cell lysates. To prepare for the cell treatment, MCF-7 cells were seeded into four wells on a six-well plate in RPMI medium. The medium was supplemented with 10% Fetal Bovine Serum to aid the cell attachment. The cells were incubated for 24 hours, after which time the 10% serum medium was aspirated and replaced with 2 mL of no-serum medium. The cells were starved overnight to stop the signaling from the FBS. On the third day, the medium was replaced and different dilutions of peptide diluted in no-serum medium was added to the four wells. Well 1 & 2 had 0.0 μM of 18, well 3 0.5 and well 4 2.5 μM.
The cells were placed on ice briefly to aid in detaching and then scraped from the bottom of the wells and rinsed with cold PBS. The cells suspended in PBS were collected and centrifuged for 5 minutes at 1500 rpm at 4° C. and the medium aspirated. […]
Master mix AKT fluorogenic substrate was prepared according to the protocol provided by BioSource. […] The fluorescence was excited at 360 nm and read at 485 nm for a length of 60 minutes every thirty seconds on a FLUOstar/POLARstar Galaxy (BMG Lab Technologies GmbH) microplate reader. […]

[4] = final 0.5% FBS, two days with compound

Row | SMILES | GI50 [1, 4] [µM] | TGI [1, 4] [µM] | growth inhibition / potency in MCF-7 cells (in words) [1] | cell-growth inhibitory properties [2] | AKT enzyme activity [3]
1 | CCCCCCCCCCCCCCCC(=O)N[C@@H](Cc1c[nH]cn1)C(=O)N[C@@H](CCCNC(=N)N)C(=O)N[C@@H](CCCCN)C(=O)N[C@@H](CCCNC(=N)N)C(=O)N[C@@H](CC(N)=O)C(=O)N[C@@H](CC(N)=O)C(=O)N[C@@H](CO)C(=O)N[C@@H](CCCNC(=N)N)C(=O)N[C@@H](CC(C)C)C(=O)NCC(=O)N[C@@H](CC(N)=O)C(=O)NCC(=O)N[C@H](C(=O)N[C@@H](CC(C)C)C(=O)N[C@@H](Cc1ccc(O)cc1)C(N)=O)C(C)C [Peptide 9, Pal-HRKRNNSRLGNGVLY-NH2] (Palmitoyl-HRKRNNSRLGNGVLY-NH2) | 1.65 ± 0.1 | >5 | did not improve the degree of folding or the potency | significant cell-growth inhibitory properties | 
2 | CCCCCCCCCCCCCCCC(=O)NCCCC[C@@H](NC(=O)[C@@H](CCCNC(=N)N)NC(=O)[C@@H](CC(N)=O)NC(=O)[C@@H](CC(N)=O)NC(=O)[C@@H](CO)NC(=O)[C@@H](CCCNC(=N)N)NC(=O)[C@@H](CC(C)C)NC(=O)CNC(=O)[C@@H](CC(N)=O)NC(=O)CNC(=O)[C@H](NC(=O)[C@@H](CC(C)C)NC(=O)[C@@H](Cc1ccc(O)cc1)NC(C)=O)C(C)C)C(N)=O [Peptide 18, Ac-YLVGNGLRSNNRK-(ε-Pal)] (Ac-[dY][dL][dV]G[dN]G[dL][dR][dS][dN][dN][dR][dK](Palmitoyl)-NH2; C-terminus assumed) |  | 0.4 ± 0.02 | increased the potency |  | decreased to undetectable levels
